Patent US20160296499A1, “Spiroindoline Antiparasitic Derivatives” (ZOETIS SERVICES LLC, priority 2013, published 2016)
Like-named read-outs stand apart in the source and are kept apart here.

Legend:
[1] = molecular target: T1, bovine vesicular acetylcholine transporter (VAChT) (Bos taurus, UniProt E1BK36); test: Radioligand Binding Assay; conditions: Bovine binding Ki, CHO-K1 membranes with recombinant bovine VAChT, [3H]Compound X6 0.3 nM
T1 sequence (E1BK36 1-524): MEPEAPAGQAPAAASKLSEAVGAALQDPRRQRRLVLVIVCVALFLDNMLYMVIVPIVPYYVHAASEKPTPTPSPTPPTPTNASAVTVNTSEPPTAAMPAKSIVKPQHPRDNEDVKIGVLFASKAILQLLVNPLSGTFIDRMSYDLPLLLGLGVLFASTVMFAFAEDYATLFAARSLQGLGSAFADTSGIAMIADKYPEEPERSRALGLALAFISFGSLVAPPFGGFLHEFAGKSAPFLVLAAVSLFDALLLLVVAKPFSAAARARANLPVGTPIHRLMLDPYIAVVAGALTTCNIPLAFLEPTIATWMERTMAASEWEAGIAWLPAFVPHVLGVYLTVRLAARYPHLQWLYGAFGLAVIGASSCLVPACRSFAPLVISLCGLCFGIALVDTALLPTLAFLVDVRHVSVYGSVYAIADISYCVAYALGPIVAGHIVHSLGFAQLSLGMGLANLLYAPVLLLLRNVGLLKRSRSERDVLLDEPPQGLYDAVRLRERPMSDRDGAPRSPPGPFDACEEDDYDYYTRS

[2] = tested on: Dirofilaria immitis microfilariae; test: Dirofilaria immitis, Microfilariae (DiMF) In Vitro Assay
Haemonchus contortus L3 = test: Haemonchus contortus, Larvae Stage 3 (HcL3) In Vitro Assay; conditions: Haemonchus contortus
[3] = Dirofilaria immitis, 72 hours, read-out: Di MF
[4] = 96 hours, 37° C., read-out: HcL3 MEC
[5] = Dirofilaria immitis, 72 h, read-out: Di MF, MEC, decrease in microfilariae motility by visual assessment, curve starting at 100 μM
[6] = 96 h, read-out: HcL3 MEC, Minimal Effective Concentration whereby worm motility is inhibited by approximately 70%, 37° C., tested 0.001-100 μM

SMILES | Ki [1] | minimal effective concentration [2, 3] | minimal effective concentration (Haemonchus contortus L3; [4]) | minimal effective concentration [2, 5] | minimal effective concentration (Haemonchus contortus L3; [6]) | minimal effective concentration ([2]; MEC, decrease in microfilariae motility by visual assessment, 72 hours, curve starting at 100 μM, read-out: Di MF)
O=C(NCc1ccnc(Cl)c1)N1CC2(CCN(C/C=C/c3ccc(Cl)c(Cl)c3)CC2)c2cc(C(F)(F)F)ccc21 [Example 133, (E)-N-((2-chloropyridin-4-yl)methyl)-1′-(3-(3,4-dichlorophenyl)allyl)-5-(trifluoromethyl)spiro[indoline-3,4′-piperidine]-1-carboxamide] | 546 nM | 7.6 µM | 3.3 µM |  |  | 
O=C(NCc1ccnc(Cl)c1)N1CC2(CCN(C/C=C/c3ccc(Cl)c(Cl)c3)CC2)c2cc(Cl)c(C(F)(F)F)cc21 [Example 135, (E)-5-chloro-N-((2-chloropyridin-4-yl)methyl)-1′-(3-(3,4-dichlorophenyl)allyl)-6-(trifluoromethyl)spiro[indoline-3,4′-piperidine]-1-carboxamide] | 118 nM | 57.4 µM | 3.3 µM |  |  | 
O=C(NCc1ccnc(Cl)c1)N1CC2(CCN(C/C=C/c3ccc(Cl)c(Cl)c3)CC2)c2c1ccc(Cl)c2Cl [Example 136, (E)-4,5-dichloro-N-((2-chloropyridin-4-yl)methyl)-1′-(3-(3,4-dichlorophenyl)allyl)spiro[indoline-3,4′-piperidine]-1-carboxamide] | 160 nM | 100 µM | 3.3 µM |  |  | 
CN(C)c1ccc2c(c1)C1(CCN(C/C=C/c3ccc(Cl)c(Cl)c3)CC1)CN2C(=O)NCc1ccnc(Cl)c1 [Example 137, (E)-N-((2-chloropyridin-4-yl)methyl)-1′-(3-(3,4-dichlorophenyl)allyl)-5-(dimethylamino)spiro[indoline-3,4′-piperidine]-1-carboxamide] | 516 nM |  |  | 10 µM | 3.3 µM | 
O=C(NCc1ccnc(Cl)c1)N1CC2(CCN(C/C=C/c3ccc(C(F)(F)F)cc3)CC2)c2ccc(C(F)(F)F)cc21 [Example 138, (E)-N-((2-chloropyridin-4-yl)methyl)-6-(trifluoromethyl)-1′-(3-(4-(trifluoromethyl)phenyl)allyl)spiro[indoline-3,4′-piperidine]-1-carboxamide] | 57.2 nM |  |  | 10 µM | 3.3 µM | 
O=C(NCc1ccnc(Cl)c1)N1CC2(CCN(Cc3ccc4cc(F)ccc4c3)CC2)c2cc(Cl)ccc21 [Example 139, 5-chloro-N-((2-chloropyridin-4-yl)methyl)-1′-((6-fluoronaphthalen-2-yl)methyl)spiro[indoline-3,4′-piperidine]-1-carboxamide] | 20.1 nM |  |  | 33 µM | 3.3 µM | 
O=C(NCc1ccnc(Cl)c1)N1CC2(CCN(C/C=C/c3ccc(Cl)cc3)CC2)c2c1ccc(F)c2Cl [Example 140, (E)-4-chloro-1′-(3-(4-chlorophenyl)allyl)-N-((2-chloropyridin-4-yl)methyl)-5-fluorospiro[indoline-3,4′-piperidine]-1-carboxamide] | 95.2 nM | 5.7 µM | 3.3 µM |  |  | 
O=C(NCc1ccnc(Cl)c1)N1CC2(CCN(C/C=C/c3ccc(F)cc3)CC2)c2cc(Cl)c(Cl)cc21 [Example 141, (E)-5,6-dichloro-N-((2-chloropyridin-4-yl)methyl)-1′-(3-(4-fluorophenyl)allyl)spiro[indoline-3,4′-piperidine]-1-carboxamide] | 164 nM | 4.4 µM | 3.3 µM |  |  | 
O=C(NCc1ccnc(Cl)c1)N1CC2(CCN(C/C=C/c3ccc(Cl)cc3)CC2)c2cc(Cl)c(Cl)cc21 [Example 142, (E)-5,6-dichloro-1′-(3-(4-chlorophenyl)allyl)-N-((2-chloropyridin-4-yl)methyl)spiro[indoline-3,4′-piperidine]-1-carboxamide] | 107 nM | 7.6 µM | 3.3 µM |  |  | 
O=C(NCc1ccnc(Cl)c1)N1CC2(CCN(C/C=C/c3ccc(F)cc3)CC2)c2c1ccc(Cl)c2Cl [Example 143, (E)-4,5-dichloro-N-((2-chloropyridin-4-yl)methyl)-1′-(3-(4-fluorophenyl)allyl)spiro[indoline-3,4′-piperidine]-1-carboxamide] | 114 nM | 5.7 µM | 3.3 µM |  |  | 
O=C(NCc1ccnc(Cl)c1)N1CC2(CCN(C/C=C/c3ccc(Cl)cc3)CC2)c2c1ccc(Cl)c2Cl [Example 144, (E)-4,5-dichloro-1′-(3-(4-chlorophenyl)allyl)-N-((2-chloropyridin-4-yl)methyl)spiro[indoline-3,4′-piperidine]-1-carboxamide] | 26.2 nM | 10 µM | 3.3 µM |  |  | 
O=C(NCc1ccnc(Cl)c1)N1CC2(CCN(C/C=C/c3ccc(C(F)(F)F)cc3)CC2)c2cc(F)c(Cl)cc21 [Example 145, (E)-6-chloro-N-((2-chloropyridin-4-yl)methyl)-5-fluoro-1′-(3-(4-(trifluoromethyl)phenyl)allyl)spiro[indoline-3,4′-piperidine]-1-carboxamide] | 47.4 nM |  |  | 5.7 µM | 3.3 µM | 
O=C(NCc1ccnc(Cl)c1)N1CC2(CCN(C/C=C/c3ccc(Cl)c(Cl)c3)CC2)c2c1ccc(F)c2Cl [Example 146, (E)-4-chloro-N-((2-chloropyridin-4-yl)methyl)-1′-(3-(3,4-dichlorophenyl)allyl)-5-fluorospiro[indoline-3,4′-piperidine]-1-carboxamide] | 21.7 nM |  |  | 5.7 µM | 3.3 µM | 
O=C(NCc1ccnc(Cl)c1)N1CC2(CCN(C/C=C/c3ccc(Cl)cc3)CC2)c2cc(OC(F)(F)F)ccc21 [Example 147, (E)-1′-(3-(4-chlorophenyl)allyl)-N-((2-chloropyridin-4-yl)methyl)-5-(trifluoromethoxy)spiro[indoline-3,4′-piperidine]-1-carboxamide] | 322 nM |  |  |  | 3.9 µM | 4.8 µM
O=C(NCc1ccnc(F)c1)N1CC2(CCN(C/C=C/c3ccc(Cl)cc3)CC2)c2c(OC(F)(F)F)ccc(Cl)c21 [Example 148, (E)-7-chloro-1′-(3-(4-chlorophenyl)allyl)-N-((2-fluoropyridin-4-yl)methyl)-4-(trifluoromethoxy)spiro[indoline-3,4′-piperidine]-1-carboxamide] | 2480 nM |  |  | 3.3 µM | 100 µM | 
O=C(NCc1ccnc(Cl)c1)N1CC2(CCN(C/C=C/c3ccc(Cl)cc3)CC2)c2c1cccc2C(F)(F)F [Example 149, (E)-1′-(3-(4-chlorophenyl)allyl)-N-((2-chloropyridin-4-yl)methyl)-4-(trifluoromethyl)spiro[indoline-3,4′-piperidine]-1-carboxamide] | 396 nM |  |  | 8.1 µM | 5.1 µM | 
O=C(NCc1ccnc(Cl)c1)N1CC2(CCN(C/C=C/c3ccc(Cl)cc3)CC2)c2cc(OC(F)(F)F)c(Cl)cc21 [Example 150, (E)-6-chloro-1′-(3-(4-chlorophenyl)allyl)-N-((2-chloropyridin-4-yl)methyl)-5-(trifluoromethoxy)spiro[indoline-3,4′-piperidine]-1-carboxamide] | 297 nM |  |  | 18.2 µM | 5.7 µM | 
O=C(NCc1ccnc(Cl)c1)N1CC2(CCN(C/C=C/c3ccc(C(F)(F)F)cn3)CC2)c2cc(C(F)(F)F)ccc21 [Example 151, (E)-N-((2-chloropyridin-4-yl)methyl)-5-(trifluoromethyl)-1′-(3-(5-(trifluoromethyl)pyridin-2-yl)allyl)spiro[indoline-3,4′-piperidine]-1-carboxamide] | 518 nM |  |  | 4.3 µM | 5.7 µM | 
O=C(NCc1ccnc(Cl)c1)N1CC2(CCN(C/C=C/c3ccc(C(F)(F)F)cc3)CC2)c2c1cccc2C(F)(F)F [Example 152, (E)-N-((2-chloropyridin-4-yl)methyl)-4-(trifluoromethyl)-1′-(3-(4-(trifluoromethyl)phenyl)allyl)spiro[indoline-3,4′-piperidine]-1-carboxamide] | 1320 nM |  |  | 4.4 µM | 5.7 µM | 
O=C(NCc1ccnc(Cl)c1)N1CC2(CCN(C/C=C/c3ccc(F)cc3)CC2)c2c1cccc2C(F)(F)F [Example 153, (E)-N-((2-chloropyridin-4-yl)methyl)-1′-(3-(4-fluorophenyl)allyl)-4-(trifluoromethyl)spiro[indoline-3,4′-piperidine]-1-carboxamide] | 218 nM |  |  | 7.6 µM | 5.7 µM | 
